Assay: Interfacial tension between crude oil and water, spinning drop tensiometer
Format: physicochemical
Details: for IFT after aging: after aging at 90° C. for 2 weeks
Text: API gravity and molecular weight of the oil were 30 and 251 g mol^−1, respectively.
where γ0 is the surface tension of the brine (FW or SW), NA is the Avogadro number, dγ/dlnC is the slope below CMC in the surface tension plot, C is the surfactant concentration in brine, T is temperature, R is the gas constant, and n=1 for zwitterionic surfactants [Wang, Y., Zhang, Y., Liu, X., Wang, J., Wei, L., & Feng, Y. (2014) Effect of a hydrophilic head group on Krafft temperature, surface activities and rheological behaviors of Erucyl Amidobetaines. Journal of Surfactants and Detergents, 17:295-301—incorporated herein by reference]. The interfacial tension between crude oil and water was measured using a spinning drop tensiometer from Kruss (SITE 100). All the reported points are the average equilibrium values.
Interfacial tension is one of the main parameters to assess the performance of surfactants for EOR application. Interfacial tension depends on several parameters such as the nature of the crude oil, salinity, temperature, pH, surfactant type and its molecular structure, surfactant concentration, and residence time of the surfactant inside the reservoir. […] The spinning drop tensiometer can measure ultra-low IFT down to 10^−4 mN m^−1 at various temperatures. This equipment could go up to 90° C., but it was difficult to get a stable drop due to bubble formation, therefore the IFT calculated at 90° C. might not be an accurate representation. Therefore, measuring IFT at high temperature was avoided and another strategy was adopted. Specifically, several solutions at field conditions (90° C.) were aged for 2 weeks and then their IFT was compared with that of the original solution. The water/oil IFT was initially >9 mN m^1 in both FW and SW. […] The low CMC is advantageous because the same IFT reduction can be achieved at a very low surfactant concentration. In addition, IFT will not change considerably because of surfactant adsorption. In general, no considerable change in IFT was detected within the investigated temperatures and salinities. […] Canadian Journal of Chemical Engineering, 94:454-460; and Li, P., Yang, C., Cui, Z., Song, B., Jiang, J., & Wang, Z. (2016) A new type of sulfobetaine surfactant with double alkyl polyoxyethylene ether chains for enhanced oil recovery. Journal of Surfactants and Detergents, 19:967-977, each incorporated herein by reference in their entirety]. […] Journal of Surfactants and Detergents, 20:777-788; and Hussain, S. S., Kamal, M. S., & Sultan, A. S. (2017) Amido-amine-based cationic Gemini surfactants: Thermal and interfacial properties and interactions with cationic polyacrylamide. Journal of Surfactants and Detergents, 20:47-55, each incorporated herein by reference in their entirety].

[1] = 0.02 wt. % surfactant, FW, 60° C.
[2] = 0.02 wt. % surfactant, SW, 30° C.
[3] = 0.05 wt. % surfactant, FW, 60° C.
[4] = 0.05 wt. % surfactant, SW, 30° C.

CCCCCCCC/C=C\CCCCCCCC(=O)NCCC[N+](C)(C)CCCS(=O)(=O)[O-] [unsaturated surfactant, 3-(N-oleamidopropyl-N,N-dimethylammonium) propane sulfonate]
IFT (0.01 wt. % surfactant, FW, 60° C.): 0.33 mN m^−1
IFT (0.01 wt. % surfactant, SW, 30° C.): 0.31 mN m^−1
IFT (0.01 wt. % surfactant, SW, 60° C.): 0.36 mN m^−1
IFT [1]: 0.25 mN m^−1
IFT after aging [1]: 0.27 mN m^−1
IFT [2]: 0.21 mN m^−1
IFT after aging [2]: 0.29 mN m^−1
IFT (0.02 wt. % surfactant, SW, 60° C.): 0.27 mN m^−1
IFT [3]: 0.23 mN m^−1
IFT after aging [3]: 0.26 mN m^−1
IFT [4]: 0.25 mN m^−1
IFT after aging [4]: 0.29 mN m^−1
IFT (0.05 wt. % surfactant, SW, 60° C.): 0.31 mN m^−1
IFT (0.075 wt. % surfactant, FW, 60° C.): 0.24 mN m^−1
IFT (0.075 wt. % surfactant, SW, 30° C.): 0.21 mN m^−1
IFT (0.075 wt. % surfactant, SW, 60° C.): 0.30 mN m^−1
IFT (0.1 wt. % surfactant, FW, 60° C.): 0.28 mN m^−1
IFT (0.1 wt. % surfactant, SW, 30° C.): 0.22 mN m^−1
IFT (0.1 wt. % surfactant, SW, 60° C.): 0.31 mN m^−1
IFT (0.2 wt. % surfactant, FW, 60° C.): 0.27 mN m^−1
IFT (0.2 wt. % surfactant, SW, 30° C.): 0.23 mN m^−1
IFT (0.2 wt. % surfactant, SW, 60° C.): 0.32 mN m^−1
decrease in water/oil IFT on addition of surfactant (FW and SW, initial IFT >9): almost two orders of magnitude
oil/water IFT, order of magnitude (not affected much by temperature and salinity): ~10^−1 mN m^−1
change of water/oil IFT after aging (solutions aged at 90° C. for 2 weeks): did not change
